Results: ChEMBL document CHEMBL5729731, “Imidazole-containing inhibitors of ALK2 kinase” (2023)

Target: T1, Activin receptor type-1 (Homo sapiens, UniProt Q04771)
T1 sequence (Q04771 whole entry): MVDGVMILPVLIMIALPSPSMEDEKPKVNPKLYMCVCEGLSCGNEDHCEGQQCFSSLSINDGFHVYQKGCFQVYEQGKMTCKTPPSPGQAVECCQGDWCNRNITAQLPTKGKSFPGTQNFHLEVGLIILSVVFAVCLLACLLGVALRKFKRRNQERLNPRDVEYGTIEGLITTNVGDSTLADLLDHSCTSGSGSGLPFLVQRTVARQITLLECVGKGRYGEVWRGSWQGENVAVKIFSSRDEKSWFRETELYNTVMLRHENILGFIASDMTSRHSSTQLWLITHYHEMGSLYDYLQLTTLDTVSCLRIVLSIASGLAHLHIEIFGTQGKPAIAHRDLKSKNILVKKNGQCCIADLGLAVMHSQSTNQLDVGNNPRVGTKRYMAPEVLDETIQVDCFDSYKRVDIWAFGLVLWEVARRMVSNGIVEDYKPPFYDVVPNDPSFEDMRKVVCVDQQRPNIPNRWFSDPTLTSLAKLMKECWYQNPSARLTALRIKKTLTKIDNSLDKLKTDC
Experiment: Biochemical assay: Biochemical assays to measure the inhibitory effects of the compounds were performed by ThermoFisher Scientific (Life Technologies). ALK2 inhibition was tested using LanthaScreen Eu Kinase Binding Assay screening protocol.

COc1cc(-n2cnc(Nc3nc(-c4cccc(CO)c4)nc4sc(CO)cc34)c2)cc(OC)c1OC
IC50: < 100 nM
